The values below come from paper PMC10985270 (Acta Pharmaceutica Sinica. B, 2024).

By EC50 is commonly meant the concentration needed to bring the measured effect to its halfway point. For orientation: IC50 means the midpoint of a concentration-inhibition curve. A higher IC50 goes with a need for much substance.

Assay [1] has as its target T1, hMAO-B (Homo sapiens, UniProt P27338).
T1 sequence (P27338 1-520): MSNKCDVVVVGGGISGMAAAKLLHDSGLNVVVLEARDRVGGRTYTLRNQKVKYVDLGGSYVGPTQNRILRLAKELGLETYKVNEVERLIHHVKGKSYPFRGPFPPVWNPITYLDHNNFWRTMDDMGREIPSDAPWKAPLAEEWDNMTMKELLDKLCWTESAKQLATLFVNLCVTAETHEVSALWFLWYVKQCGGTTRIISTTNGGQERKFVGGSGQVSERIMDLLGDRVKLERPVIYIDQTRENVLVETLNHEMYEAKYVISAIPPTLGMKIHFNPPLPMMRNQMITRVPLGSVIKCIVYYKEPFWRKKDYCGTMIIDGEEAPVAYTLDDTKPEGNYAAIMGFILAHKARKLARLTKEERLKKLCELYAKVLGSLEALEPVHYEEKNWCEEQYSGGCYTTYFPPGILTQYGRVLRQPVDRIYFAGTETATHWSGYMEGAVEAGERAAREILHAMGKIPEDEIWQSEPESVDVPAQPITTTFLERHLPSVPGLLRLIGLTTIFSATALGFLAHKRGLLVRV
Put plainly: Reversibility of hMAO-B inhibition. It is filed as biochemical. Conditions: KYN 46 μmol/L.

A further assay relates to SH-SY5Y cells. Description: Neuroprotection against 6-OHDA-induced toxicity in SH-SY5Y cells. It is filed as cell-based. The note with it: Homo sapiens, read-out: EC50, neuroprotective effect.
The target of assay [2] is T1, hMAO-B. Put plainly: At-line nanofractionation hMAO-B screening of mixed standards. The format is biochemical. Conditions: mixed standards 100 μmol/L.
Assay [3] concerns the target T1, hMAO-B. Put plainly: hMAO-B fluorescence bioassay. The format is biochemical. Conditions: for SI: selectivity index for the MAO-B isoform: ratio IC50(MAO-A)/IC50(MAO-B).
The target of a further assay is T2, hMAO-A (Homo sapiens, UniProt P21397).
T2 sequence (P21397 1-527): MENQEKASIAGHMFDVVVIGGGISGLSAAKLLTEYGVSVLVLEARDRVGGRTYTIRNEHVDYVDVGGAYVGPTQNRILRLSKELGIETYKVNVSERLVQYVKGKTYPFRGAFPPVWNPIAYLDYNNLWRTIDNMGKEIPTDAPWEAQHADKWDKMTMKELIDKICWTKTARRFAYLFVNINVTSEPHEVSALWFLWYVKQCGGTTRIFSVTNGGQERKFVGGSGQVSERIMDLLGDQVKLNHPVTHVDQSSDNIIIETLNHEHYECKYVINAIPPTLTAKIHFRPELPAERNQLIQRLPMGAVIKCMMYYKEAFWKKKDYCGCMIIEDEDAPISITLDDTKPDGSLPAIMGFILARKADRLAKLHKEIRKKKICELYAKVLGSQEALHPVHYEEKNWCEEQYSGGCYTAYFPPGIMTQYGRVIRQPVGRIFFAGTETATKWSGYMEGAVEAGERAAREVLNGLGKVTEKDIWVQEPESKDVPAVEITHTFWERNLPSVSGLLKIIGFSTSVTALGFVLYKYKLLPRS
Description: hMAO-A fluorescence bioassay. It is filed as biochemical.

Read-outs that look alike come from different tables or passages of the source.

For `C[C@H](NCc1ccc(OCc2cccc(F)c2)cc1)C(N)=O` [Safinamide, reference compound], the “Reversibility of hMAO-B inhibition” value at hMAO-B [1] was “reversible”. Further, the concentration giving a half-maximal response (EC50) in the assay on SH-SY5Y cells is 1.08 µM.

Consider `C#CCN[C@@H]1CCc2ccccc21` [Rasagiline], for which the EC50 in the assay with SH-SY5Y cells worked out at 0.896 µM. For the same compound, the “Activity peak in bioactivity chromatogram” value at hMAO-B [2] is given as “displayed inhibitory activity”.

Take `O=C(O)/C=C/c1ccc(O)c(O)c1` [Caffeic acid]: the IC50 amounted to 33.1 ± 7.57 µM at hMAO-B [3] (Inhibition (IC50) hMAO-B, Table 1) and 60.9 ± 5.85 µM on hMAO-A. The “SI: selectivity index for the MAO-B isoform” value (shortened to “SI: selectivity index”) on hMAO-B [3] is 1.840.

In the case of `CCCC[C@@H]1OC(=O)C2=CCCC[C@H]21` [Neocnidilide], the IC50 at hMAO-B [3] was determined as 0.494 ± 0.132 µM; on hMAO-A, 102 ± 13.1 µM. Also, the “Inhibitory activity against hMAO-B (in words)” value at hMAO-B [3] (phthalides) is recorded as “highest activity”. In addition, the “SI: selectivity index” value at hMAO-B [3] turned out to be 207.362; on hMAO-B [3] (listed as neocnidilide), 207. Besides, the “Reversibility of hMAO-B inhibition” value at hMAO-B [1] is given as “reversible”. For the same compound, the EC50 in the assay with SH-SY5Y cells was determined as 1.16 µM.

The compound `COc1ccc(-c2coc3cc(O)ccc3c2=O)cc1O` [Calycosin, reference compound] came in with an IC50 at hMAO-B [3] of 24 µM. Further, the “Activity peak in bioactivity chromatogram” value on hMAO-B [2] is given as “displayed inhibitory activity”.

Regarding `COc1cc(C=O)ccc1O` [Vanillin], at hMAO-B [3], half-maximal inhibition (IC50) was put at 45.7 ± 2.6 µM and the “SI: selectivity index” value amounted to 1.884. The compound further registered a concentration for half-maximal inhibition (IC50) on hMAO-A of 86.1 ± 15.3 µM.

As to `O=C(/C=C/c1ccc(O)c(O)c1)O[C@@H]1C[C@](O)(C(=O)O)C[C@@H](O)[C@H]1O` [Chlorogenic acid], the half-inhibitory concentration (IC50) amounted to 69.6 ± 14.4 µM at hMAO-B [3] and 82.4 ± 14.6 µM on hMAO-A.
